Experimental data from US20110301046A1, “Methods of Determining Efficacy of Glucocorticoid Treatment of Eosinophilic Esophagitis” (Children's Hospital Medical Center, priority 2008, published 2011).

How the values were obtained:
FKBP51 transcripts = assay: Whole genome microarray analysis of esophageal biopsy samples from EE patients treated with swallowed FP; assay type: in vivo, human; details: esophageal biopsies
From the text: FIG. 1 depicts the identification of glucocorticoid-regulated genes in EE patients that respond to FP treatment. (A) Analysis of microarray data to identify glucocorticoid-regulated transcripts. RNA from distinct patient populations was subjected to chip analysis using Affymetrix Human Genome U 133 Plus 2.0 GeneChips®. The groups are composed of the following numbers of patients: normal (NL), n=14; EE, n=14; EE, FP responders (EE R), n=13; EE, FP non-responders, n=8. Using the average expression for each patient group, the subset of genes differentially regulated between normal (NL) and EE patients was identified by t-test (p<0.01). The subset of genes differentially regulated between normal patients and EE patients that respond to FP (EE R) was then identified by 2-fold change filter. Subsequently, the subset of genes differentially regulated between NL and EE patients was subtracted from those differentially regulated between NL and EE R. These transcripts were then subjected to ANOVA, p<0.01. […] The average expression level for each patient group (normal, EE, Flovent® (fluticasone propionate) responders, Flovent® non-responders) is expressed as fold-change compared to the normal patients. […] The transcript levels for the indicated gene for each patient population was quantified by real-time PCR and normalized to glyceraldehyde-3-phosphate dehydrogenase (GAPDH) levels. […]

[1] = test system: FKBP51, KRT7, H19 transcripts; assay: Real-time PCR analysis of glucocorticoid-regulated genes in patient esophageal biopsies; assay type: in vivo, human
From the text: FIG. 2 depicts the verification of transcript levels of glucocorticoid-regulated genes by real-time PCR analysis. (A) Microarray data for three glucocorticoid-regulated genes. The average expression level for each patient group (normal, EE, Flovent® (fluticasone propionate) responders, Flovent® non-responders) is expressed as fold-change compared to the normal patients. (B) Real-time PCR analysis for three glucocorticoid-regulated genes. The transcript levels for the indicated gene for each patient population was quantified by real-time PCR and normalized to glyceraldehyde-3-phosphate dehydrogenase (GAPDH) levels. […] The expression pattern of three of the identified candidate genes was validated by real-time PCR analysis.

[2] = test system: FKBP51 transcript in peripheral blood mononuclear cells; assay: FKBP51 induction in PBMCs cultured ex vivo, real-time PCR; assay type: cell-based, human; details: all FP concentrations tested, 24 h, normalized to GAPDH
Protocol: (§1) FIG. 3 depicts FKBP51 induction following glucocorticoid treatment. (A) Peripheral blood mononuclear cells (PBMCs) were isolated from a patient blood sample and cultured ex vivo. The cells were treated with the indicated concentration of FP for 24 h. RNA was isolated, cDNA synthesis was performed, and real-time PCR analysis was conducted. FKBP51 transcript levels were normalized to GAPDH levels. (B) Primary esophageal epithelial cells were cultured from the biopsy of an EE patient with active disease. Cells were treated or not with 10^−6 M FP for 24 h. Protein extracts were prepared and subjected to SDS-PAGE and western blot analysis for FKBP51 and actin (left). FKBP51 and actin levels were quantified by densitometry analysis. The ratio of FKBP51 to actin is shown (right). (C) TE-7 cells were treated with the indicated dose of FP for 24 h. Protein extracts were then prepared and subjected to SDS-PAGE and western blot analysis for FKBP51 and actin (top). Densitometry analysis was performed and the fold-change in the ratio of FKBP51 to actin expression is graphed (bottom). (D) TE-7 cells were treated for the indicated amount of time with 10^−7 M FP. RNA was isolated, cDNA synthesis was performed, and real-time PCR analysis to detect FKBP51 and GAPDH transcripts was done (left). […]

[3] = test system: FKBP51 protein in primary esophageal epithelial cells; assay: FKBP51 protein in primary esophageal epithelial cells from an EE patient, western blot; assay type: cell-based, human; details: 10^-6 M FP, 24 h, FKBP51 to actin ratio
Protocol: as §1

FKBP51 in TE-7 cells = assay: FKBP51 induction in TE-7 esophageal cell line, western blot and real-time PCR; assay type: cell-based
Protocol: FIG. 3 depicts FKBP51 induction following glucocorticoid treatment. (A) Peripheral blood mononuclear cells (PBMCs) were isolated from a patient blood sample and cultured ex vivo. The cells were treated with the indicated concentration of FP for 24 h. RNA was isolated, cDNA synthesis was performed, and real-time PCR analysis was conducted. FKBP51 transcript levels were normalized to GAPDH levels. (B) Primary esophageal epithelial cells were cultured from the biopsy of an EE patient with active disease. Cells were treated or not with 10^−6 M FP for 24 h. Protein extracts were prepared and subjected to SDS-PAGE and western blot analysis for FKBP51 and actin (left). FKBP51 and actin levels were quantified by densitometry analysis. The ratio of FKBP51 to actin is shown (right). (C) TE-7 cells were treated with the indicated dose of FP for 24 h. Protein extracts were then prepared and subjected to SDS-PAGE and western blot analysis for FKBP51 and actin (top). Densitometry analysis was performed and the fold-change in the ratio of FKBP51 to actin expression is graphed (bottom). (D) TE-7 cells were treated for the indicated amount of time with 10^−7 M FP. RNA was isolated, cDNA synthesis was performed, and real-time PCR analysis to detect FKBP51 and GAPDH transcripts was done (left). In a separate experiment, protein extracts were prepared and then subjected to SDS-PAGE and western blot analysis for FKBP51 and actin (right, top). Following densitometry analysis, the fold-change in the ratio of FKBP51 to actin signal was graphed (right, bottom)*, p<0.05; **, p<0.01. To further study the role of FKBP51 in epithelial cells, the TE-7 esophageal cell line was used to understand the expression patterns of FKBP51 following FP treatment. […] The kinetics of FKBP51 Mrna and protein expression were examined following FP treatment. […] Similarly, FKBP51 protein levels in TE-7 cells increased in a time dependent manner, with maximum levels of protein observed by 24 h following treatment.

[4] = test system: eotaxin-3 transcript in TE-7 cells; assay: IL-13-induced eotaxin-3 transcript levels in TE-7 cells, real-time PCR; assay type: cell-based; details: IL-13 100 ng/ml, 24 h
Protocol: (§2) FIG. 4 depicts IL-13 induced transcript levels of two representative genes are reversed by FP treatment. TE-7 cells were treated as indicated with IL-13 (100 ng/ml) and/or the indicated dose of FP for 24 h. RNA was isolated and cDNA synthesis was performed. Transcript levels of eotaxin-3 (A) and serpinb4 (B) were determined by real-time PCR analysis and normalized to GAPDH levels. *, p<0.05; **, p<0.01.
(§3) IL-13 signaling in esophageal epithelial cells is known to have a role in EE pathogenesis by inducing the EE transcriptome. […] When TE-7 cells are treated with IL-13, an increase in eotaxin-3 and serpinb4 transcript levels is observed (FIG. 4A, B).

[5] = test system: serpinb4 transcript in TE-7 cells; assay: IL-13-induced serpinb4 transcript levels in TE-7 cells, real-time PCR; assay type: cell-based; details: IL-13 100 ng/ml, 24 h
Protocol: as §2, §3

eotaxin-3 promoter = assay: Eotaxin-3 promoter luciferase reporter in transfected TE-7 cells, dual luciferase assay; assay type: cell-based
Protocol: FIG. 5 depicts increased baseline FKBP51 levels impact glucocorticoid repression of IL-13-induced eotaxin-3 promoter activity. (A) Schematics of constructs used in this study. GRE, glucocorticoid response element. CMV, cytomegalovirus promoter. (B) Cells were transfected with Phrl-TK, pEotaxin-3, and Pcdna3.1 or Pfkbp51. Cells were then treated with IL-13 ([…]) and/or FP (10^−6 M) for 24 h. Protein lysates were then collected, and firefly and Renilla luciferase activity for each sample were quantified by dual luciferase assay (Promega). Eotaxin-3 promoter activity is expressed as the ratio of firefly to Renilla luciferase activity. **, p<0.01; ***, p<0.001.
(§4) Cells were transfected with Phrl-TK and pEotaxin-3 (A) or pEotaxin-3 3′UTR (B) for 48 h. Cells were then treated with IL-13 (100 ng/ml) and/or FP (10^−6 M) for 24 h. Protein lysates were then collected, and firefly and Renilla luciferase activity for each sample was quantified by dual luciferase assay (Promega). Eotaxin-3 promoter activity is expressed as the ratio of firefly to Renilla luciferase activity. **, p<0.01.
(§5) The contribution of the promoter and 3′ UTR sequences of eotaxin-3 to the control of its gene expression following IL-13 and FP treatment, was tested using TE-7 cells transiently transfected with a luciferase reporter construct. The cells were transfected with a luciferase reporter construct containing either 800 bp of the eotaxin-3 promoter 5′ of the firefly luciferase gene in the Pg13-Basic vector or a plasmid containing 200 bp of the eotaxin-3 3′ UTR downstream of the firefly luciferase gene in the Pg13-Promoter vector (FIG. 5A). The same cells were co-transfected with a plasmid containing Renilla luciferase under a constitutive promoter (Phrl-TK) that served as a control for transfection efficiency. Part of the observed decrease in IL-13 induced eotaxin-3 Mrna levels following FP treatment can be mediated through modulation of the promoter activity due to the presence of a putative glucocorticoid-responsive element (GRE) in this region (FIG. 5A).
To test whether increased FKBP51 levels impacted the FP-mediated decrease in IL-13-induced eotaxin-3 promoter activity, TE-7 cells were transfected with either empty vector (Pcdna3.1) or an expression construction that contained FKBP51 under the control of the CMV promoter (Pfkbp51, FIG. 5A) to simulate high baseline levels of FKBP51. […] However, when cells were transfected with the FKBP51 expression vector, the FP-mediated decrease in IL-13 induced eotaxin-3 promoter activity was abolished (FIG. 5B).

eotaxin-3 3' UTR = assay: Eotaxin-3 3' UTR luciferase reporter in transfected TE-7 cells, dual luciferase assay; assay type: cell-based; details: IL-13 100 ng/ml and/or FP 10^-6 M, 24 h, FIG. 6B
Protocol: as §4, §5

[6] = average, FIG. 2B, real-time PCR

## CCC(=O)O[C@]1(C(=O)SCF)[C@H](C)C[C@H]2[C@@H]3C[C@H](F)C4=CC(=O)C=C[C@]4(C)[C@@]3(F)[C@@H](O)C[C@@]21C [FP, S-fluoromethyl-6α,9-difluoro-11β-hydroxy-16α-methyl-3-oxoandrosta-1,4-diene-17β-carbothioate, 17-propionate]
FKBP51 transcripts
  increase in FKBP51 transcripts in FP-responders compared to control and active EE individuals: 4 fold
[1]; [6]
  FKBP51 levels in FP responders compared to normal patients: 4 fold
  FKBP51 transcript levels in FP non-responder patients compared to normal patients: 1.5 fold
[1]; microarray and real-time PCR
  FKBP51, KRT7 and H19 transcript levels in FP responder patients compared to untreated patients: increased transcript levels
[2]
  FKBP51 transcript levels in isolated PBMCs: significant increase
[3]
  increase in FKBP51 protein in primary esophageal epithelial cells: approximately 3 fold
FKBP51 in TE-7 cells; 10^-7 M FP, real-time PCR
  FKBP51 transcript levels in TE-7 cells over time: increased by 4 h post treatment and were further increased by 8 h, after which no further increase was observed
FKBP51 in TE-7 cells; 10^-7 M FP, western blot
  time of maximum FKBP51 protein levels in TE-7 cells: ≤ 24 h
FKBP51 in TE-7 cells; various doses of FP, 24 h, western blot
  FKBP51 protein levels in TE-7 cells in response to FP dose: dose-dependent increase
[4]; indicated doses of FP
  IL-13 mediated increase in eotaxin-3 transcript levels on concomitant FP treatment: decreased in a dose-dependent manner
[5]; indicated doses of FP
  IL-13 mediated increase in serpinb4 transcript levels on concomitant FP treatment: decreased in a dose-dependent manner
eotaxin-3 promoter; FKBP51 expression vector, IL-13 10 ng/ml, FP 10^-6 M, 24 h, FIG. 5B
  FP-mediated decrease in IL-13 induced eotaxin-3 promoter activity in cells transfected with FKBP51 expression vector: abolished
eotaxin-3 promoter; FKBP51 overexpression in TE-7 cells
  reduction of FP-mediated inhibition of IL-13-induced eotaxin-3 expression by FKBP51 overexpression: 50%
eotaxin-3 promoter; IL-13 100 ng/ml, FP 10^-6 M, 24 h, FIG. 6A
  IL-13-induced eotaxin-3 promoter activity upon concomitant FP treatment: decrease
eotaxin-3 promoter; empty vector, IL-13 10 ng/ml, FP 10^-6 M, 24 h, FIG. 5B
  reduction of IL-13-induced eotaxin-3 promoter activity by concomitant FP: 50%
eotaxin-3 3' UTR
  modulation of mRNA stability via eotaxin-3 3' UTR sequence: did not show any modulation

## IL-13: cytokine used to induce eotaxin-3 and serpinb4 in TE-7 esophageal epithelial cells
[4]; TE-7 cells
  eotaxin-3 transcript levels on IL-13 treatment: increase
[5]; TE-7 cells
  serpinb4 transcript levels on IL-13 treatment: increase
eotaxin-3 promoter; empty vector, IL-13 10 ng/ml, 24 h, FIG. 5B
  increase in eotaxin-3 promoter activity upon IL-13 treatment: 2 fold
eotaxin-3 3' UTR
  modulation of mRNA stability via eotaxin-3 3' UTR sequence: did not show any modulation
